For 14 molecules, IC50 and logP results are on record in ChEMBL document CHEMBL5346939, “Targeting glutaminase 1 (GLS1) by small molecules for anticancer therapeutics” (Eur J Med Chem, 2023).

Molecules are shown by their SMILES.

Data set [1] addresses T1, Glutaminase kidney isoform, mitochondrial (Homo sapiens, UniProt O94925).
T1 sequence (O94925 whole entry): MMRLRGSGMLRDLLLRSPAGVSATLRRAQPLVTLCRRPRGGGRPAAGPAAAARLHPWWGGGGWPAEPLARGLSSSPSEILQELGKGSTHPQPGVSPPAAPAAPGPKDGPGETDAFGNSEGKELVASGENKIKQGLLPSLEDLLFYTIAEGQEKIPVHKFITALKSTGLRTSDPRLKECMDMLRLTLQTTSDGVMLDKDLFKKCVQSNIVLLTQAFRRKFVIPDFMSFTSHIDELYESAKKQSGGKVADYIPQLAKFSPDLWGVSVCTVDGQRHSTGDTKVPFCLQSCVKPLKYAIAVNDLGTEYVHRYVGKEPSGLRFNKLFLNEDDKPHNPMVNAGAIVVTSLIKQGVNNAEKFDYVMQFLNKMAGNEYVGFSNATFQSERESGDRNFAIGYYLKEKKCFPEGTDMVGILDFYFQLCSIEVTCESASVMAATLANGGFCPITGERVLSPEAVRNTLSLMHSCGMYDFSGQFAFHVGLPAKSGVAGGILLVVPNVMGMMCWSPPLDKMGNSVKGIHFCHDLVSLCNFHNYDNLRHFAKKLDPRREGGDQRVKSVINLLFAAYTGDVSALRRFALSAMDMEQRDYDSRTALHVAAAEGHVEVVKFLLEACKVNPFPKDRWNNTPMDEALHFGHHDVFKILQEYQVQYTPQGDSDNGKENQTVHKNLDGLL
Description: Inhibition of C-terminal His-tagged human recombinant KGA transformed in Escherichia coli BL21 DE3 at pH 7.4 incubated for 3 hrs.

A short description of data set [2]: Inhibition of human recombinant Glutaminase.
The nature of data set [3]: Lipophilicity, logP of the compound at pH 7.4 by HPLC analysis. Format: physicochemical. Particulars: buffer.
Data set [4] can be described thus: Inhibition of N-terminal 6His-tagged recombinant rat glutaminase expressed in Escherichia coli BL-21 DE3 measured after 20 mins by colorimetric analysis.
The test system of a further data set is SW1990. Nature of the data set: Antiproliferative activity against human SW1990 cells assessed as reduction in cell viability measured after 72 hrs by CCK-8 assay. It counts as functional, cell-based. Particulars: SW1990, 72 h.
The nature of data set [5]: Inhibition of 6His-tagged recombinant mouse GAC expressed in Escherichia coli preincubated for 10 mins and measured after 45 mins by chromatographic analysis.
The target of data set [6] is T1, Glutaminase kidney isoform, mitochondrial. Nature of the data set: Inhibition of N-terminal His-tagged GLS1 (unknown origin) expressed in Escherichia coli BL21 (DE3) preincubated for 20 mins and measured after 2 hrs.
For data set [7] the target is unchanged. Description: Inhibition of full length C terminal His-tagged human KGA expressed in Escherichia coli BL-21 DE3.
For another data set, the system named is HCC1806. Nature of the data set: Cytotoxicity against human HCC1806 cells assessed as reduction in cell viability measured after 48 hrs by MTT assay. The note with it: HCC1806, 48 h. Format: functional, cell-based.
The nature of data set [8]: Inhibition of N-terminal Histidine-tagged recombinant mouse GAC incubated for 1 hrs by fluorescence based analysis.
A short description of data set [9]: Inhibition of full length C-terminal His-tagged rat Glutaminase expressed in Escherichia coli BL21 DE3 incubated for 12 hrs.
A short description of data set [10]: Inhibition of human Glutaminase.

In general, IC50 refers to the concentration at which inhibition is half-maximal. As to `O=c1c2ccccc2[se]n1CCCCCCn1[se]c2ccccc2c1=O`, the IC50 in data set [1] amounted to 0.2 µM.

Consider `CN(C)c1ccc(C2Nc3ccc4ccccc4c3C3=C2C(=O)CC(C)(C)C3)cc1Br` (stereo not drawn), for which the IC50 in data set [2] is ~9.3 µM.

One may read the logP as the decadic logarithm of the partition coefficient of the neutral form, usually between octanol and water. Low readings indicate lower lipophilicity, high ones higher lipophilicity. Turning to `O=C(Cc1ccccc1)Nc1nnc(CCSCCc2nnc(NC(=O)Cc3ccccc3)s2)s1`, the logP in data set [3] is 3.73. For the same molecule, the values for the half-inhibitory concentration (IC50) (in data set [4]; in the data set on SW1990) were 3.3 µM and 35.3 µM, respectively.

For `O=C(Cc1cccc(OC(F)(F)F)c1)Nc1ccc(CCCCc2nnc(NC(=O)Cc3ccccn3)s2)nn1`, the logP in data set [3] was found to be 2.72. Moreover, in the data set with SW1990, the half-maximal inhibitory concentration (IC50) came out at 13.1 µM.

Take `CN(C)c1ccc(C2Nc3ccc4ccccc4c3C3=C2C(=O)CC(C)(C)C3)cc1` (stereo not drawn): the IC50 in [5] was ~50 µM.

In the case of `CC(C)c1ccc(C2Nc3ccc4ccccc4c3C3=C2C(=O)CC(C)(C)C3)cc1` (stereo not drawn), in [5], the IC50 was ~20 µM.

Take `CC1(C)CC(=O)C2=C(C1)c1c(ccc3ccccc13)NC2c1ccc(C(C)(C)C)cc1` (stereo not drawn): in data set [5], the IC50 was ~10 µM.

`O=C(Cc1ccccc1)Nc1nnc([C@@H]2CCC[C@@H](c3nnc(NC(=O)Cc4ccccc4)s3)C2)s1` had an IC50 in data set [6] of 0.1 µM.

On to `C=C1CC[C@]2(C(=O)O[C@@H]3O[C@H](CO[C@@H]4O[C@H](CO)[C@@H](O)[C@H](O)[C@H]4O)[C@@H](O)[C@H](O)[C@H]3O)CC[C@]3(C)C(=CCC4[C@@]5(C)CC[C@H](O[C@@H]6OC[C@H](O[C@@H]7OC[C@H](O)[C@H](O)[C@H]7O[C@@H]7O[C@@H](C)[C@H](O)[C@@H](O)[C@H]7O)[C@H](O)[C@H]6O)C(C)(C)C5CC[C@]43C)C2C1` (stereo partly drawn), for which the IC50 in data set [7] was 6.1 µM; with HCC1806, 24.9 µM.

For the molecule `CN(C)c1ccc(C2Nc3ccc4cc(C(C)(C)C)ccc4c3C3=C2C(=O)CC(C)(C)C3)cc1Br` (stereo not drawn), the 50% inhibitory concentration (IC50) in [8] is 4.5 µM.

For `CC1(C)CCc2c(ccc3c2O[C@@H]2c4ccc(O)cc4O[C@H]3[C@H]2O)O1`, the IC50 in [9] is 36.7 µM.

In turn, `CN1CCc2cccc3c2[C@H]1Cc1ccc(O)c(O)c1-3` [APOMORPHINE] returned an IC50 in [10] of 0.6 µM.

In turn, `COc1ccc2c(c[n+](C)c3c4cc5c(cc4ccc23)OCO5)c1OC` [CHELERYTHRINE CHLORIDE] gave an IC50 in data set [10] of 0.03 µM.

`O=c1c2ccccc2[se]n1-c1ccccc1` [EBSELEN]: the half-inhibitory concentration (IC50) in data set [10] turned out to be 0.009 µM.
